Assay results taken from patent publication US20120009151A1, “Triazines And Related Compounds Having Antiviral Activity, Compositions And Methods Thereof” (priority 2007, published 2012).
Where a name gives a salt, the structure may show the parent alone.

Test system: H77/JFH-1 chimeric HCVcc
Assay: HCV cell culture (HCVcc) model, Renilla luciferase
Assay type: cell-based
Details: H77/JFH-1 HCVcc, Huh 7.5 cells, Renilla luciferase 72 hours post-infection

| Structure (SMILES) | EC50 |
| --- | --- |
| C[C@@]1(O)[C@H](O)[C@@H](CO)O[C@H]1n1cnc2c(N)ncnc21 [Compound 2-CMA] | 92 nM |

Test system: not given
Assay: not given
Details: not given

| Structure (SMILES) | melting point |
| --- | --- |
| Cc1ccc(CNc2nc(OCC(F)(F)F)nc(Oc3cccc(C(F)(F)F)c3)n2)o1 | 116 to 118 °C |
| Fc1ccc(CNc2nc(NCc3ccccc3F)nc(OCC(F)(F)F)n2)cc1 | 105 to 107 °C |
| Fc1ccc(CNc2nc(OCC(F)(F)F)nc(Oc3cccc(C(F)(F)F)c3)n2)cc1 | 107 to 109 °C |
| CCNc1nc(NCCN2CCCC2)nc(Nc2ccc(OC)cc2)n1 (as salt: hydrochloride) | 29 to 31 °C |
| Oc1nc(NCc2ccc(F)cc2)nc(Nc2cccc(C(F)(F)F)c2)n1 | 266 to 268 °C |

Now from value to compound:

| melting point | Structure (SMILES) |
| --- | --- |
| 115 to 117 °C | CCOc1nc(NCc2ccco2)nc(N2CCN(Cc3ccccn3)CC2)n1 |
| 80 to 83 °C | Oc1ccc(Nc2nc(NCc3ccco3)nc(Oc3ccc(O)cc3)n2)cc1 |
| 101 to 103 °C | Fc1ccc(CNc2nc(OCc3ccccc3)nc(OCC(F)(F)F)n2)cc1 |
| 170 to 172 °C | Fc1ccc(CNc2nc(OCC(F)(F)F)nc(-c3ccccc3)n2)cc1 |
| 148 to 150 °C | Fc1ccc(CNc2nc(Nc3cccc(Cl)c3)nc(OCC(F)(F)F)n2)cc1 |
| 98 to 99 °C | CC(C)N1CCC(Nc2nc(NCc3ccc(F)cc3)nc(OCC(F)(F)F)n2)C1 (stereo not shown) |
| 124 to 126 °C | FC(F)(F)c1cccc(Nc2nc(NCc3ccco3)nc(OCc3ccncc3)n2)c1 |
